Experiments:
[1] = Cytotoxicity against human HOP92 cells assessed as cell growth at 10 uM after 72 hrs by SRB assay relative to control; assay type: functional; conditions: HOP-92, 72 h, read-out: Activity
NCI-H460 = test: Cytotoxicity against human NCI-H460 cells assessed as cell growth at 10 uM after 72 hrs by SRB assay relative to control; assay type: functional; conditions: NCI-H460, 72 h, read-out: Activity
[2] = Cytotoxicity against human COLO205 cells assessed as cell growth at 10 uM after 72 hrs by SRB assay relative to control; assay type: functional; conditions: COLO 205, 72 h, read-out: Activity
[3] = Cytotoxicity against human HCT116 cells assessed as cell growth at 10 uM after 72 hrs by SRB assay relative to control; assay type: functional; conditions: HCT-116, 72 h, read-out: Activity
[4] = Cytotoxicity against human HCT15 cells assessed as cell growth at 10 uM after 72 hrs by SRB assay relative to control; assay type: functional; conditions: HCT-15, 72 h, read-out: Activity
KM12 = test: Cytotoxicity against human KM12 cells assessed as cell growth at 10 uM after 72 hrs by SRB assay relative to control; assay type: functional; conditions: KM12, 72 h, read-out: Activity
[5] = Cytotoxicity against human SW620 cells assessed as cell growth at 10 uM after 72 hrs by SRB assay relative to control; assay type: functional; conditions: SW-620, 72 h, read-out: Activity
[6] = Cytotoxicity against human SF295 cells assessed as cell growth at 10 uM after 72 hrs by SRB assay relative to control; assay type: functional; conditions: SF-295, 72 h, read-out: Activity
[7] = Cytotoxicity against human SNB75 cells assessed as cell growth at 10 uM after 72 hrs by SRB assay relative to control; assay type: functional; conditions: SNB-75, 72 h, read-out: Activity
Malme-3M = test: Cytotoxicity against human MALME-3M cells assessed as cell growth at 10 uM after 72 hrs by SRB assay relative to control; assay type: functional; conditions: read-out: Activity
M14 = test: Cytotoxicity against human M14 cells assessed as cell growth at 10 uM after 72 hrs by SRB assay relative to control; assay type: functional; conditions: M14, 72 h, read-out: Activity
MDA-MB-435 = test: Cytotoxicity against human MDA-MB-435 cells assessed as cell growth at 10 uM after 72 hrs by SRB assay relative to control; assay type: functional; conditions: MDA-MB-435, 72 h, read-out: Activity
SK-MEL-2 = test: Cytotoxicity against human SK-MEL-2 cells assessed as cell growth at 10 uM after 72 hrs by SRB assay relative to control; assay type: functional; conditions: SK-MEL-2, 72 h, read-out: Activity
SK-MEL-5 = test: Cytotoxicity against human SK-MEL-5 cells assessed as cell growth at 10 uM after 72 hrs by SRB assay relative to control; assay type: functional; conditions: SK-MEL-5, 72 h, read-out: Activity
[8] = Cytotoxicity against human UACC257 cells assessed as cell growth at 10 uM after 72 hrs by SRB assay relative to control; assay type: functional; conditions: UACC-257, 72 h, read-out: Activity
[9] = Cytotoxicity against human IGROV1 cells assessed as cell growth at 10 uM after 72 hrs by SRB assay relative to control; assay type: functional; conditions: IGROV-1, 72 h, read-out: Activity
[10] = Cytotoxicity against human OVCAR3 cells assessed as cell growth at 10 uM after 72 hrs by SRB assay relative to control; assay type: functional; conditions: OVCAR-3, 72 h, read-out: Activity
[11] = Cytotoxicity against human OVCAR5 cells assessed as cell growth at 10 uM after 72 hrs by SRB assay relative to control; assay type: functional; conditions: OVCAR-5, 72 h, read-out: Activity
[12] = Cytotoxicity against human SKOV3 cells assessed as cell growth at 10 uM after 72 hrs by SRB assay relative to control; assay type: functional; conditions: SK-OV-3, 72 h, read-out: Activity
786-0 = test: Cytotoxicity against human 786-0 cells assessed as cell growth at 10 uM after 72 hrs by SRB assay relative to control; assay type: functional; conditions: 786-0, 72 h, read-out: Activity
A498 = test: Cytotoxicity against human A498 cells assessed as cell growth at 10 uM after 72 hrs by SRB assay relative to control; assay type: functional; conditions: A498, 72 h, read-out: Activity
ACHN = test: Cytotoxicity against human ACHN cells assessed as cell growth at 10 uM after 72 hrs by SRB assay relative to control; assay type: functional; conditions: read-out: Activity
[13] = Cytotoxicity against human Caki1 cells assessed as cell growth at 10 uM after 72 hrs by SRB assay relative to control; assay type: functional; conditions: CAKI-1, 72 h, read-out: Activity
SN12C = test: Cytotoxicity against human SN12C cells assessed as cell growth at 10 uM after 72 hrs by SRB assay relative to control; assay type: functional; conditions: read-out: Activity
[14] = Cytotoxicity against human PC3 cells assessed as cell growth at 10 uM after 72 hrs by SRB assay relative to control; assay type: functional; conditions: PC-3, 72 h, read-out: Activity
MCF7 = test: Cytotoxicity against human MCF7 cells assessed as cell growth at 10 uM after 72 hrs by SRB assay relative to control; assay type: functional; conditions: MCF7, 72 h, read-out: Activity
MDA-MB-231 = test: Cytotoxicity against human MDA-MB-231 cells assessed as cell growth at 10 uM after 72 hrs by SRB assay relative to control; assay type: functional; conditions: MDA-MB-231, 72 h, read-out: Activity
[15] = Cytotoxicity against human BT549 cells assessed as cell growth at 10 uM after 72 hrs by SRB assay relative to control; assay type: functional; conditions: BT-549, 72 h, read-out: Activity
T47D = test: Cytotoxicity against human T47D cells assessed as cell growth at 10 uM after 72 hrs by SRB assay relative to control; assay type: functional; conditions: read-out: Activity
MDA-MB-468 = test: Cytotoxicity against human MDA-MB-468 cells assessed as cell growth at 10 uM after 72 hrs by SRB assay relative to control; assay type: functional; conditions: MDA-MB-468, 72 h, read-out: Activity
[16] = target: Vascular endothelial growth factor receptor 2 (Homo sapiens, UniProt P35968); test: Inhibition of human VEGFR2 at 10 uM after 20 to 40 mins by liquid scintillation counting analysis in presence of […]; set-up: scale not given: the % may be the effect or the level left
Sequence of Vascular endothelial growth factor receptor 2 (P35968 whole entry): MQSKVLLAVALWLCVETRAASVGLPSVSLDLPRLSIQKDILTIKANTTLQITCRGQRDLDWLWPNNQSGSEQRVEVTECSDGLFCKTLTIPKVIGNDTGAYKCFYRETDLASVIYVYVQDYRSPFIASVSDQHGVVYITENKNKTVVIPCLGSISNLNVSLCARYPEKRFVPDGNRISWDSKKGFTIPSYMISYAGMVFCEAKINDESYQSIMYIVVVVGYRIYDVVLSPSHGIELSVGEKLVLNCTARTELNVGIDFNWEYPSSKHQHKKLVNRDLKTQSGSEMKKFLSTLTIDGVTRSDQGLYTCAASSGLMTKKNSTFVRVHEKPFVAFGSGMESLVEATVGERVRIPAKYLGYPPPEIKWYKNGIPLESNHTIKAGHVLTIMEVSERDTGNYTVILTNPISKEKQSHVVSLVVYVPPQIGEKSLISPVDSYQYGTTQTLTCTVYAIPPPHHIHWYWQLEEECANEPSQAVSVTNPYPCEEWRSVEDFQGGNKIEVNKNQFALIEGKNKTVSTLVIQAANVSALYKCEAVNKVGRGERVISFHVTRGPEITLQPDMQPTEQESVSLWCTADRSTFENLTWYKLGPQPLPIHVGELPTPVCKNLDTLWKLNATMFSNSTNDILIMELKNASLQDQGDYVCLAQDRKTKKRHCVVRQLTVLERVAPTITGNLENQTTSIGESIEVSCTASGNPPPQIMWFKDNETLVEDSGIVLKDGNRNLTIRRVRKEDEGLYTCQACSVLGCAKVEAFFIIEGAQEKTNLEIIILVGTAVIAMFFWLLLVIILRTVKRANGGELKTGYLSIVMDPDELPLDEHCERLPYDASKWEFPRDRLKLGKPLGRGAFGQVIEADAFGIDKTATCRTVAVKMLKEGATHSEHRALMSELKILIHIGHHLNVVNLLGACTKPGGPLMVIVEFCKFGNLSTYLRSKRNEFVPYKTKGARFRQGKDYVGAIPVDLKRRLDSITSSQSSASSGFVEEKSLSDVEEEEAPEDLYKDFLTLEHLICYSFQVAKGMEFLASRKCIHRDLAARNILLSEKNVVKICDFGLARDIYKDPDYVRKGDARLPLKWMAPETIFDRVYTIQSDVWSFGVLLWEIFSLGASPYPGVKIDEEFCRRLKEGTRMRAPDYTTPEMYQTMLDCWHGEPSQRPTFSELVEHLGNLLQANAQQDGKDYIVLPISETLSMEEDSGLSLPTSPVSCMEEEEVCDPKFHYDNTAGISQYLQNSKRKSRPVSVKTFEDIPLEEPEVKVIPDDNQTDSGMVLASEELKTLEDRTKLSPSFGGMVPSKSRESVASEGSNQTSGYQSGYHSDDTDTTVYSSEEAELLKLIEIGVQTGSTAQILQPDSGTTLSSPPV

[17] = Cytotoxicity against human HL-60(TB) cells assessed as cell growth at 10 uM after 72 hrs by SRB assay relative to control; assay type: functional; conditions: HL-60, 72 h, read-out: Activity
K562 = test: Cytotoxicity against human K562 cells assessed as cell growth at 10 uM after 72 hrs by SRB assay relative to control; assay type: functional; conditions: K562, 72 h, read-out: Activity
[18] = Cytotoxicity against human MOLT4 cells assessed as cell growth at 10 uM after 72 hrs by SRB assay relative to control; assay type: functional; conditions: MOLT-4, 72 h, read-out: Activity
[19] = Cytotoxicity against human RPMI8226 cells assessed as cell growth at 10 uM after 72 hrs by SRB assay relative to control; assay type: functional; conditions: RPMI-8226, 72 h, read-out: Activity
A549 = test: Cytotoxicity against human A549 cells assessed as cell growth at 10 uM after 72 hrs by SRB assay relative to control; assay type: functional; conditions: A549, 72 h, read-out: Activity

Compound | growth at 10 µM [1] [%] | growth at 10 µM (NCI-H460) [%] | growth at 10 µM [2] [%] | growth at 10 µM [3] [%] | growth at 10 µM [4] [%] | growth at 10 µM (KM12) [%] | growth at 10 µM [5] [%] | growth at 10 µM [6] [%] | growth at 10 µM [7] [%] | growth at 10 µM (Malme-3M) [%] | growth at 10 µM (M14) [%] | growth at 10 µM (MDA-MB-435) [%] | growth at 10 µM (SK-MEL-5) [%] | growth at 10 µM [8] [%] | growth at 10 µM [9] [%] | growth at 10 µM [10] [%] | growth at 10 µM [11] [%] | growth at 10 µM [12] [%] | growth at 10 µM (786-0) [%] | growth at 10 µM (A498) [%] | also measured
O=c1sc2cc(Nc3ncnc4c3cnn4-c3ccccc3)ccc2n1Cc1ccc(Cl)cc1 | 64.4 | 83.5 | 92.7 | 80.3 | 86.5 | 71.6 | 84.4 | 87.2 | 88.3 | 86.4 | 82.8 | 84.2 | 87.2 | 92.6 | 81.8 | 86.6 | 75.1 | 101 | 93.7 | 59 | growth at 10 µM (SK-MEL-2): 88%; growth at 10 µM (ACHN): 74.6%; growth at 10 µM [13]: 71.6%; growth at 10 µM (SN12C): 75%; growth at 10 µM [14]: 55.6%; growth at 10 µM (MCF7): 85.3%; growth at 10 µM (MDA-MB-231): 57.7%; growth at 10 µM [15]: 101%; growth at 10 µM (T47D): 62.3%; growth at 10 µM (MDA-MB-468): 65.9%; Activity [16]: -7%; growth at 10 µM [17]: 66.9%; growth at 10 µM (K562): 49.6%; growth at 10 µM [18]: 58.6%; growth at 10 µM [19]: 63.5%; growth at 10 µM (A549): 78%
c1ccc(COc2ccc(Nc3ncnc4c3cnn4-c3ccccc3)cc2)cc1 | 98.8 | 93.7 | 107 | 106 | 72.4 | 98.2 | 98.7 | 107 | 102 | 92.8 | 101 | 90.1 | 94.3 | 121 | 100 | 113 | 98.9 | 108 | 100 | 77.9 | growth at 10 µM (SK-MEL-2): 115%; growth at 10 µM (ACHN): 104%; growth at 10 µM [13]: 99.1%; growth at 10 µM (SN12C): 97.4%; growth at 10 µM [14]: 88.5%; growth at 10 µM (MCF7): 100%; growth at 10 µM (MDA-MB-231): 101%; growth at 10 µM [15]: 106%; growth at 10 µM (T47D): 100%; growth at 10 µM (MDA-MB-468): 93.1%; Activity [16]: -5%; growth at 10 µM [17]: 99.8%; growth at 10 µM (K562): 90.3%; growth at 10 µM [18]: 93.1%; growth at 10 µM [19]: 96.5%; growth at 10 µM (A549): 104%
Clc1ccc(-n2ncc3c(Nc4ccc(OCc5ccccc5)cc4)ncnc32)cc1 | 97.8 | 93.1 | 91.2 | 94.8 | 87.2 | 80.2 | 101 | 97.8 | 86.4 | 85.1 | 93.6 | 83.2 | 94.4 | 102 | 102 | 102 | 92.8 | 99.7 | 103 | 85.2 | growth at 10 µM (ACHN): 98.6%; growth at 10 µM [13]: 93.7%; growth at 10 µM [14]: 86.1%; growth at 10 µM (MCF7): 95.9%; growth at 10 µM [15]: 107%; growth at 10 µM (T47D): 82.5%; growth at 10 µM (MDA-MB-468): 91.5%; Activity [16]: 0%; growth at 10 µM [17]: 86.9%; growth at 10 µM (K562): 87.3%; growth at 10 µM [18]: 89.6%; growth at 10 µM [19]: 86.4%; growth at 10 µM (A549): 88.8%
O=C(NC1CCCCC1)c1ccc(Nc2ncnc3c2cnn3-c2ccccc2)cc1 | 37.7 | 42.2 | 65.4 | 37.6 | 66.6 | 88.5 | 72.9 | 73.4 | -20.4 | 2.93 | 69.1 | 81.2 | 75.4 | 56.5 | 71.1 | 87.4 | 80.3 | 54 | 72.1 | 50.4 | growth at 10 µM (SK-MEL-2): 79.1%; growth at 10 µM (ACHN): 54.3%; growth at 10 µM [13]: 62.3%; growth at 10 µM (SN12C): 19%; growth at 10 µM [14]: 53.3%; growth at 10 µM (MCF7): 82.8%; growth at 10 µM (MDA-MB-231): 8.76%; growth at 10 µM [15]: 59.8%; growth at 10 µM (T47D): 76.8%; growth at 10 µM (MDA-MB-468): 76.1%; Activity [16]: 7%; growth at 10 µM [17]: 106%; growth at 10 µM (K562): 73.2%; growth at 10 µM [18]: 89.5%; growth at 10 µM [19]: 89.5%; growth at 10 µM (A549): 16.6%
Cc1ccc2nc(Nc3ncnc4c3cnn4-c3ccccc3)sc2c1 | 97.5 | 98.4 | 110 | 99.4 | 97.8 | 98.9 | 100 | 99.8 | 107 | 87 | 107 | 91.9 | 92.1 | 112 | 99.6 | 108 | 96 | 112 | 103 | 66.4 | growth at 10 µM (SK-MEL-2): 109%; growth at 10 µM (ACHN): 107%; growth at 10 µM [13]: 103%; growth at 10 µM (SN12C): 97.5%; growth at 10 µM [14]: 98.3%; growth at 10 µM (MCF7): 97.2%; growth at 10 µM (MDA-MB-231): 102%; growth at 10 µM [15]: 108%; growth at 10 µM (T47D): 108%; growth at 10 µM (MDA-MB-468): 80.3%; Activity [16]: -1%; growth at 10 µM [17]: 103%; growth at 10 µM (K562): 102%; growth at 10 µM [18]: 102%; growth at 10 µM [19]: 102%; growth at 10 µM (A549): 102%
